Test results: patent US20080255244A1, “CaM Kinase II Inhibitor Improves Retinoic Acid Therapy and Inhibits the Proliferation of Myeloid Leukemia Cells” (Fred Hutchinson Cancer Research Center, priority 2007, published 2008)
“Also recorded” adds a separate entry of the source.

Assays:
[1] = tested on: autophosphorylated CaMKIIγ in TonB210.1 cells; test: bcr-abl induced CaMKII autophosphorylation in TonB210.1 cells (Western blot); format: cell-based; conditions: TonB210.1 deprived of IL-3 for 24 hours, compound added with doxycycline
[2] = tested on: K562 cells; test: K562 proliferation in liquid suspension culture (cell counts); format: cell-based, human; conditions: seeded at 5×10^4 cells/ml; cell counts
Protocol: (A) K562 cells were seeded in liquid suspension culture at 5×10^4 cells/ml in the presence or absence of the indicated concentration of compounds, and cell counts were obtained at the indicated time.
Cell lines. All leukemia cell lines are cultured at 37° in RPMI supplemented with 5% heat-inactivated fetal calf serum.

[3] = tested on: autophosphorylated CaMKIIγ in HL60 cells; test: Western blot of CaMKIIγ autophosphorylation in HL60 cells; format: cell-based, human; conditions: phospho-T286/7 antibody, ATRA 1 μM, TPA 0.1 μM
Protocol: (§1) FIG. 7. KN-62 regulates the differentiation of myeloid leukemia cell lines. (A) Wright Giemsa-stained HL-60 cells either (a) uninduced or treated for five days with (b) KN62 or (c) ATRA. (d) CD11b expression in HL-60 cells after five days exposure to KN62 (5 μM) or ATRA (1 μM). (B) Wright-Giemsa stained NB4 cells treated for five days with KN-62 (5 μM) and ATRA as indicated. […] (C) Cd11b expression of NB4 cells treated for five days with the indicated concentrations of RA and/or KN-62. (D) Western blots with the indicated antibodies were performed on HL60 cell lysates following incubation with KN62 for the indicated period of time. (E) Western blots of NB4 cell lysates following a five day incubation with the indicated compounds.
(§2) FIG. 9. Terminal differentiation/apoptosis of myeloid leukemia cells is associated with decreased CaMKIIγ activation. (A) Lysates from the HL60, NB4 and U937 myeloid cell lines treated with ATRA (1 μM) for the indicated period of time were subjected to Western blots. (B) Lysates from the indicated myeloid cell lines treated for five days with the indicated concentration of ATRA were subjected to Western blots. (C) Lysates from HL60 cells treated with TPA (0.1 μM) for the indicated time were subjected to Western blots. (D) Lysates from NB4 cells treated with arsenic trioxide (1 uM) for the indicated time were subjected to Western blots.
(§3) Protein extracts, Western blotting and co-immunoprecipitations. Westerns and co-immunoprecipitations were performed as previously detailed (Si, J., and Collins, S. J., Blood 100:4401-4409 (2002)).
(§4) Antibodies and Western blots. Protein extracts, immunoprecipitations and Western blots were performed as previously detailed (Si J, Collins S J. IL-3-induced enhancement of retinoic acid receptor activity is mediated through Stat5, which physically associates with retinoic acid receptors in an IL-3-dependent manner. Blood 100: 4401-9 (2002)). Antibodies against CaMKI, CaMKIIγ, CaMKIV, c-myc, Stat3, Stat5, calmodulin, as well as the phosphospecific CaMKII (T286, 287) and phosphospecific CaMKI (T177) antibodies were from Santa Cruz Biotechnology. Antibodies against phospho-Stat1 (Ser727), phospho-Stat3 (Ser727 and Tyr 705), phospho-Stat5 (Tyr 694), phospho-p44/42 MAP kinase (Thr202/Tyr 204), p44/42 MAP kinase, phospho-p38 MAP kinase (Thr 180/Tyr 182), phospho-GSK3β (Ser9) were from Cell Signaling Technology. Antibodies against Stat1, GSK3β, β-catenin, PP2Ac, and cyclin D1 were from BD Biosciences.

[4] = tested on: Stat3 transcriptional activity in K562 cells; test: Stat3 response element luciferase reporter in K562 cells; format: cell-based, human; conditions: 48 hours of culture
Protocol: FIG. 13. Stat3 is directly phosphorylated and activated by CaMKIIγ at Ser727. (A, i). Cell lysates from the indicated human leukemia cell lines were subjected to Western blots utilizing the indicated Stat3 antibodies. ii). Cell lysates from the same primary AML samples depicted in FIG. 1B were subjected to Western blots utilizing the indicated Stat3 antibodies. B). The IL-3 dependent TonB210.1 cells were deprived of IL-3 for 24 hours. The cells were then treated with the indicated compounds immediately prior to the addition of doxycycline. After an additional 24 hours cell lysates were harvested and subjected to Western blots with the indicated Stat3 antibodies. C). K562 cells were electroporated with a luciferase reporter driven by a Stat3 response element. The indicated concentrations of KN93 and the Stat 3 inhibitor, cucurbitacin I, were added and relative luciferase activity determined on cell lysates following 48 hours of culture. D, i) K562 cell lysates were immunoprecipitated with control IgG or a Stat3 antibody. […]
Transient transfections and luciferase assays. […] Stat3 transcriptional activity was determined in K562 cells transfected with the pSIE-tk-LUC luciferase reporter which harbors a Stat3 binding site ([…]). […]

[5] = tested on: autophosphorylated CaMKIIγ in K562 cells; test: Western blot of CaMKIIγ autophosphorylation in K562 cells; format: cell-based, human; conditions: for activated, autophosphorylated CaMKIIγ level: gleevec 5 uM, ATRA five days
Protocol: as §2
FIG. 10. Inhibiting bcr-abl activity/expression inhibits CaMKIIγ activation. (A) Lysates from K562 cells undergoing growth arrest following treatment with gleevec (5 uM) for the indicated times were subjected to Western blots. (B) Lysates from TonB210.1 cells depleted of doxycycline for the indicated period of time were subjected to Western blots. (C) IL-3 dependent TonB210.1 cells were deprived of IL-3 for 24 hours (lane 1). The cells were then treated with the indicated compounds simultaneously with the addition of doxycycline (lanes 2-8). After 24 hours cell lysates were harvested and subjected to Western blots with the indicated CaMKII antibodies. (D) K562 cells were cultured for 48 hours with the indicated chemical inhibitors of specific signal transduction pathways. Cell lysates were harvested and subjected to Western blot analysis.
FIG. 12. CaMKII regulates multiple signal transduction pathways in myeloid cells. (A,B) Lysates from K562 cells cultured for the indicated time in KN93 were subjected to Western blots. (C) The K562 cells transduced as described in Materials and Methods with either (i) the doxycycline (DOX) inducible expression vector/transactivator harboring the full length, Lys^43 mutated, kinase dead CaMKIIγ (kdCaMKIIγ (Tet-on)) or (ii) the CaMKII shRNA generating plasmids, were cultured in liquid suspension in the presence or absence of DOX as indicated, and cell counts obtained after 48 hours. (D) Lysates from K562 cells transduced with the indicated vectors were subjected to Western blots utilizing the indicated antibodies. For lanes 2 and 4 doxycycline (DOX) treatment was for two days.
as §4

[6] = tested on: RAR transcriptional activity in HL60 cells; test: RARE-driven luciferase reporter in HL60 cells; format: cell-based, human; conditions: six hours after treatment with ionomycin and ATRA
Protocol: FIG. 1. CaM kinase isoform expression in hematopoietic cells. (A) The activity of an ATRA-responsive luciferase reporter (βRARE-tk-Luc, 25 μg) was assessed in electroporated HL60 cells six hours after treatment with the indicated concentrations of ionomycin and ATRA. (B) The activity of the luciferase reporter (βRARE-tk-Luc, 25 μg) was assessed in HL60 six hours after treatment with KN62 (5 uM), KN93 (5 uM) and ATRA (1 uM). (C) Western blots were performed utilizing the indicated antibodies. F9 (column 6) is a mouse embryonal carcinoma cell line. BaF3 (column 7) is a cultured pre-B cell line. BM cells (column 8) are kit-ligand dependent normal murine hematopoietic precursors. PT67 murine fibroblasts individually transduced with either rat CaMKIIα, human CaMKIα or human CaMKIV (column 9) together with brain lysates (column 1) serve as positive controls for the respective antibodies. (D) CaMK assays were performed on HL-60 cell lysates immunoprecipitated with the indicated antibodies.
Transient transfections and luciferase assays. Murine PT67 fibroblasts were transfected utilizing calcium phosphate precipitation. All hematopoietic cell lines were transiently transfected by electroporation as previously detailed (Johnson, B. et al., Molecular and Cellular Biology 19:3372-3382 (1999)). In the transient transfections the LXSN vector (M28248) served as the expression vector for the wild type and site-directed mutagenized CaMKII and RARα coding region cDNAs. Human cDNA homologous to the coding region of rat CaMKIINα, a CaMKII inhibitory protein, was obtained by RT-PCR from HL60 RNA and cloned into the LXSN vector. The RA-responsive luciferase reporter harbors the RARE from the RARβ2 promoter as previously detailed (Si, J., and Collins, S. J., Blood 100:4401-4409 (2002)). The PON838 plasmid, a β-galactosidase reporter driven by the β-actin promoter, was used as an internal control to determine transfection efficiency for calculating relative luciferase activity.

[7] = tested on: autophosphorylated CaMKIIγ in NB4 cells; test: Western blot of CaMKIIγ autophosphorylation in NB4 cells; format: cell-based, human; conditions: single agent, ATRA 1 μM, arsenic trioxide 1 uM
Protocol: as §1, §2, §3, §4

Compound: O=C(O)c1ccc2c3c1cccc3c(=O)n1c3ccccc3nc21 [STO609]
- bcr-abl (tet/doxycycline) restored CaMKII autophosphorylation [1]: not inhibited
- K562 cell proliferation [2]: did not significantly inhibit; also recorded: minimal effects

Compound: CCCCCCCCCCCCCC(=O)O[C@@H]1[C@@H](C)[C@@]2(O)[C@@H](C=C(CO)C[C@]3(O)C(=O)C(C)=C[C@@H]23)[C@@H]2C(C)(C)[C@]12OC(C)=O [TPA, phorbol myristate acetate]
- activated, autophosphorylated CaMKIIγ level [3]: marked decrease

Compound: CC(C)(O)/C=C/C(=O)[C@](C)(O)[C@H]1[C@H](O)C[C@@]2(C)[C@@H]3CC=C4[C@@H](C=C(O)C(=O)C4(C)C)[C@]3(C)C(=O)C[C@]12C [cucurbitacin I]
- Stat3 responsive reporter activity [4]: inhibit

Compound: Cc1ccc(NC(=O)c2ccc(CN3CCN(C)CC3)cc2)cc1Nc1nccc(-c2cccnc2)n1 [imatinib]
- K562 cell proliferation [2]: proliferative arrest
- total CaMKIIγ level [5]: no significant change
- activated, autophosphorylated CaMKIIγ level [5]: rapid, marked decrease
- activated, autophosphorylated CaMKIIγ level ([5]; listed as gleevec): downregulation

Compound: C[C@H](CCC(=O)O)C[C@H](C)C[C@H](C)C(=O)/C=C(\O)[C@H](C)C[C@H](C)C/C=C/[C@@H](C)[C@@H](O)[C@@H](C)[C@@H](O)C[C@@H]1CC[C@@](C)([C@H]2CC[C@@](C)([C@@H](C)O)O2)O1 [ionomycin]
- ATRA-induced activity of RARE-driven luciferase reporter [6]: inhibited

Compound: KN92
- K562 cell proliferation [2]: did not significantly inhibit

Compound: arsenic trioxide
- activated, autophosphorylated CaMKIIγ level [7]: downregulation
